Measured values published in paper PMC6197228, “Inhibition of TBK1/IKKε Promotes Regeneration of Pancreatic β-cells” (Scientific Reports, 2018).

Columns and labels:
Assay type in all cases: biochemical
IKKβ = molecular target: T1, IKKβ (Homo sapiens, UniProt O14920); experiment: kinase profiling, dose response IC50 (selectivity)
T1 construct: gene IKBKB
T1 sequence (O14920 1-756): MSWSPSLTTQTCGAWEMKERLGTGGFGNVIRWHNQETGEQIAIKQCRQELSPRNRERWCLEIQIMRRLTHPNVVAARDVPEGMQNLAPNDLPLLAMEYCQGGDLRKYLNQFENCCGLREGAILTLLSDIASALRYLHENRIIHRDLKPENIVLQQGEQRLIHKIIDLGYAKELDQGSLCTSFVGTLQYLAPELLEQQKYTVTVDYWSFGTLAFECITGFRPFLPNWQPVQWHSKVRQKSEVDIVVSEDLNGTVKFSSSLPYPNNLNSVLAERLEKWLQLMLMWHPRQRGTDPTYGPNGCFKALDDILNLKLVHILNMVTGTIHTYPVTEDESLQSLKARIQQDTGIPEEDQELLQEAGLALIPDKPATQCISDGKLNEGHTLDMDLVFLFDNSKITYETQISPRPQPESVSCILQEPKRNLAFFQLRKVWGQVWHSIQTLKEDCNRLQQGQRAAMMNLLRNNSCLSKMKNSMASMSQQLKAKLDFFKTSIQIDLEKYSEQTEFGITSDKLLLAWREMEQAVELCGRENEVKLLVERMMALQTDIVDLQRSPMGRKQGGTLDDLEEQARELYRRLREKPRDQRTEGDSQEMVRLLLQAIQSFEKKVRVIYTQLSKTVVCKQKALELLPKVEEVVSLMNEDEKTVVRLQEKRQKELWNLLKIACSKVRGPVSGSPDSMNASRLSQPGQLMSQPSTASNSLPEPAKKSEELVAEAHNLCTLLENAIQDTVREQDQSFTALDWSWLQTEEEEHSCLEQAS

IκB kinase ε (IKKε) = molecular target: T2, IκB kinase ε (IKKε) (Homo sapiens, UniProt Q14164); experiment: kinase profiling, dose response IC50
T2 construct: gene IKBKE
T2 sequence (Q14164 1-716): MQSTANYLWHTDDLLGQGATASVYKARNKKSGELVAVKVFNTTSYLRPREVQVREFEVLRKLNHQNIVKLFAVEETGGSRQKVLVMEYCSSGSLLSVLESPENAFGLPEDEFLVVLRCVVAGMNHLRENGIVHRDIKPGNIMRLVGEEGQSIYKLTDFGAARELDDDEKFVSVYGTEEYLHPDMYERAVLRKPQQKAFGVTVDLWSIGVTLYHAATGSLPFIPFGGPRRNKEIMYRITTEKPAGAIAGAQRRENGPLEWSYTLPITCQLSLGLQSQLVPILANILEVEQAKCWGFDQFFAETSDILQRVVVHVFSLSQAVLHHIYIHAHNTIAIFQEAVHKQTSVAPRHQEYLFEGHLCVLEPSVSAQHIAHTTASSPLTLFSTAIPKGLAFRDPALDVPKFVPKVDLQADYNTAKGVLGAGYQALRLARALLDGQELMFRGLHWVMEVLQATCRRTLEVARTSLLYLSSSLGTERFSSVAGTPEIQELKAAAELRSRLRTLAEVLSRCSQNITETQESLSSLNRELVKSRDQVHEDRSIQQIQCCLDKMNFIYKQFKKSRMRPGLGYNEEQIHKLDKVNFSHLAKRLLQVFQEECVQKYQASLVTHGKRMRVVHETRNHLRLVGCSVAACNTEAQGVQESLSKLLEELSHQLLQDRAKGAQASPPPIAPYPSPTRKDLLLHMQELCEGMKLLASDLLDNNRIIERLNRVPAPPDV

[1] = molecular target: T3, TANK-binding kinase 1 (TBK1) (Homo sapiens, UniProt Q9UHD2); experiment: kinase profiling, dose response IC50
T3 sequence (Q9UHD2 1-729): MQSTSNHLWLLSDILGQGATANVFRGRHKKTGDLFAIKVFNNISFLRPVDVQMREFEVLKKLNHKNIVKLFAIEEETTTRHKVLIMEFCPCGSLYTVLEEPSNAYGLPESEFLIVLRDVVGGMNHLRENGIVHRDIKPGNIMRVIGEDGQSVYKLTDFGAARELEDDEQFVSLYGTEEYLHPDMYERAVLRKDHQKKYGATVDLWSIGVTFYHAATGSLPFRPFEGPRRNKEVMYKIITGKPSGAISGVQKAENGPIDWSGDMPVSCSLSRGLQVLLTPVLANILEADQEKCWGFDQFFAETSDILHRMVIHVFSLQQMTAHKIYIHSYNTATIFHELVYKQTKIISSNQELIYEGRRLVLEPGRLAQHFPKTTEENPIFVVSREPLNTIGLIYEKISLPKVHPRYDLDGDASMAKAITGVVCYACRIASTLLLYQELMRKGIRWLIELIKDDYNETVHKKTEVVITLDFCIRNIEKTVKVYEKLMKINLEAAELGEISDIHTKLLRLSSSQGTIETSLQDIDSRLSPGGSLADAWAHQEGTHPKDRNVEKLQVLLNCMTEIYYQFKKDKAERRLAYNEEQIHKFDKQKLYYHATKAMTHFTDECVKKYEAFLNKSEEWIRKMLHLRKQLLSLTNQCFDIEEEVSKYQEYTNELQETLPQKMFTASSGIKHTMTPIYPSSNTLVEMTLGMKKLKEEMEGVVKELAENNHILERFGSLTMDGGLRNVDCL

IKKα = molecular target: T4, IKKα (Homo sapiens, UniProt O15111); experiment: kinase profiling, dose response IC50 (selectivity)
T4 construct: gene CHUK
T4 sequence (O15111 1-745): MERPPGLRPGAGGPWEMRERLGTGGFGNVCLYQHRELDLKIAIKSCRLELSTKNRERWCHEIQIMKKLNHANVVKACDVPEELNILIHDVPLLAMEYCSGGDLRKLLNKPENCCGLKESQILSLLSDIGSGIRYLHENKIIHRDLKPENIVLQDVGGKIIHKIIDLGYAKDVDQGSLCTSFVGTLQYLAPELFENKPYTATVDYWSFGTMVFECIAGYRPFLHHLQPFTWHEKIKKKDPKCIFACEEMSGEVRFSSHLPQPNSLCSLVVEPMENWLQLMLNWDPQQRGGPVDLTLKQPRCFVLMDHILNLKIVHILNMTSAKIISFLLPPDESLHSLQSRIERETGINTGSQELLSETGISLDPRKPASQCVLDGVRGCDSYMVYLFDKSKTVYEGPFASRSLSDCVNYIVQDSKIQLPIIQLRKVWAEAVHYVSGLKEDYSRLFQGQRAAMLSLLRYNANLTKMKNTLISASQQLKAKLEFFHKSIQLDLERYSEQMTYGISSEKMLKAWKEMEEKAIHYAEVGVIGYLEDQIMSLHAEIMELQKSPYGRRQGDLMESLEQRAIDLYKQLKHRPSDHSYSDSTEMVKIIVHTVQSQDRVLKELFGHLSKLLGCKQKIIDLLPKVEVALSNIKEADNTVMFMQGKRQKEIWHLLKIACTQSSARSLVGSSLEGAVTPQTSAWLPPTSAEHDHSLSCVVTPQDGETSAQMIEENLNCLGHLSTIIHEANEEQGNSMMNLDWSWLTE

In the case of O=C(O)/C=C/c1ccc2noc(-c3ccccc3)c2c1 [PIAA, (E)-3-(3-phenylbenzo[c]isoxazol-5-yl)acrylic acid], the IC50 (IKKβ) is reported as 50.5 µM, the IC50 (IκB kinase ε (IKKε)) is reported as ~1.07 µM and the IC50 [1] is reported as 0.4 µM. For the same molecule, the IC50 (IKKα) was 47.2 µM.
